Experimental data from article PMC5946847, “Synthesis and biological evaluation of aryl-oxadiazoles as inhibitors of Mycobacterium tuberculosis” (Bioorganic & Medicinal Chemistry Letters, 2018).
Converted amounts (≈) assume the structure as drawn. Read-outs that look alike come from different tables or passages of the source.

How the values were obtained:
in vitro = in vitro ADME; settings: mouse, plasma
Text: Fraction unbound in mouse plasma:^8

[1] = Mouse microsomal stability; format: in vitro ADME; settings: mouse, microsomes; for Mouse microsome (% metabolized in 30 min): 0.5 h, 2 μM
Experimental: 4. Method for microsomal stability:
To determine microsomal turnover, test compounds were incubated (2 μM) with liver microsomes in the presence of NADPH, and loss of parent molecule was measured by LC-MS after 30 min.

[2] = Mouse pharmacokinetic studies (intravenous and oral); format: in vivo; settings: for AUC0–24: 24 h
Experimental: 5. Method for PK studies:
In Vivo Pharmacokinetic Studies. Compounds 1, 2 and 3 were administered intravenously at 1 mg/kg (1 ml/kg) in Dimethyl acetamide 25%v/v, ethanol 15%v/v, propylene glycol 10%v/v, 2 pyrrolidone 25%v/v, PW 25%v/v in fed animal, or orally at 10 mg/kg (10 ml/kg) in Hydroxyethylcellulose 1% w/v/polysorbate 80 0.25% v/v/Antifoam 1510-US 0.05% v/v/PW (probe sonicate), in fasted animals, respectively. Additional study was conducted for compound 2 wherein the animals were dosed 1-aminobenzotriazole (100 mpk) intraperitoneally one hour prior to dosing compound 2 either intravenously (fed animals) at 1 mg/kg or orally (fasted animals) at 10 mg/kg. Three animals were dosed per study arm.
Serial blood samples were collected at 0.08, 0.25, 0.75, 2, 4, 8, 24 for intravenous and 0.25, 0.5, 1, 2, 4, 8, 24 for oral administration. The blood was collected via a tail snip directly into a 20-μL EDTA-coated capillary and immediately spotted onto a Whatman DMPK-C dried blood sample (DBS) card and analysed using LC-MS/MS, as described previously.^7 Noncompartmental pharmacokinetic parameters were calculated using Watson version 7.4 (Thermo Scientific, Waltham, MA).

Vero cells (ATCC CCL81) = experiment: Cytotoxicity in Vero cells (CellTiter-Glo); format: cell-based; settings: Chlorocebus sabaeus, 48 h, 2 days
Experimental: Vero cells (ATCC® CCL81) were grown in DMEM, high glucose, GlutaMAX™ (Invitrogen), 10% FBS, 50 units/mL penicillin, and 50 µg/mL streptomycin, seeded as 1200 cells per well in 384-well plates and incubated for 24 h at 37 °C with 5% CO2. Compounds were added as a 3-fold serial dilution series and cells incubated for 2 days at 37 °C with 5% CO2. Viability was measured using CellTiter-Glo® Reagent (Promega).

[3] = tested on: M. tuberculosis H37Rv expressing DsRed; experiment: microbe, parasite or virus in culture; format: cell-based; settings: Mycobacterium tuberculosis, read-out: 7H9-Tw-OADC MIC
[4] = tested on: M. tuberculosis H37Rv expressing DsRed; experiment: microbe, parasite or virus in culture; format: cell-based; settings: Mycobacterium tuberculosis, average ± standard deviation for at least 2 runs, read-out: 7H9-Ty-BT MIC

| SMILES | CLint scaled at 2 μM [1] | Mouse microsome (% metabolized in 30 min) [1] | solubility (physchem; pH 7.4) | AUC,u0–24 ([2]; in vivo, iv, 1 mg/kg) | CL,u ([2]; in vivo, iv, 1 mg/kg) | Cl ([2]; in vivo, iv, 1 mg/kg) | Vdss ([2]; in vivo, iv, 1 mg/kg) | Cmax ([2]; in vivo, po, 10 mg/kg) | Cmax,u ([2]; in vivo, po, 10 mg/kg) | Tmax ([2]; in vivo, po, 10 mg/kg) | t1/2 ([2]; intravenous 1 mg/kg) | IC50 (Vero cells (ATCC CCL81)) | MIC [3] | MIC [4] | also measured |
| --- | --- | --- | --- | --- | --- | --- | --- | --- | --- | --- | --- | --- | --- | --- | --- |
| c1csc(-c2nnc(Cc3cccc4ccccc34)o2)c1 [Compound 1] | 3310 mL/min/kg | 99% | < 1 µg/mL | 32 ng·h/mL | 1727 mL/min/kg | 19 mL/min/kg | 0.9 L/kg | 19 ng/mL | 0.2 ng/mL | 165 min | 1.2 h | – | – | – | fraction unbound at 4.5 h, 1 µM (in vitro): 0.011; AUC(0-t) ([2]; in vivo, iv, 1 mg/kg, AUC0–24): 2900 ng·h/mL; AUC(0-t) at 24 h ([2]; in vivo, po, 10 mg/kg, AUC0–24): 31 ng·h/mL |
| CN(Cc1nnc(-c2ccco2)o1)Cc1c(F)cccc1Cl.O=C(O)/C=C\C(=O)O [Compound 2 maleate salt] | – | – | – | – | – | – | – | – | – | – | – | – | – | – | Aqueous solubility at pH 6 (pH 6): 0.687 mg/mL; Aqueous solubility at pH 7.4 (pH 7.4): 0.717 mg/mL |
| CN(Cc1nnc(-c2ccco2)o1)Cc1c(F)cccc1Cl [Compound 2] | 1350 mL/min/kg | 99% | 77 µg/mL (≈ 239 µM) | 37 ng·h/mL | 455 mL/min/kg | 56 mL/min/kg | 1.1 L/kg | 31 ng/mL | 3.8 ng/mL | 15 min | 0.3 h | – | – | – | fraction unbound at 4.5 h, 1 µM (in vitro): 0.123; solubility (physchem; pH 6): 49 µg/mL (≈ 152 µM); AUC0–24 ([2]; in vivo, iv, 1 mg/kg): 300 ng·h/mL; Increase of oral exposure when co-administered with ABT ([2]; in vivo, po, 10 mg/kg): > 10 fold; AUC0–24 ([2]; in vivo, po, 10 mg/kg): 48 ng·h/mL; half-life ([2]; whole blood, intravenous 1 mg/kg, co-administered with ABT (100 mg/kg, 1 h pre-dose)): 102 min |
| CC1CCc2ccccc2N1Cc1nc(-c2ccsc2)no1 (centres unmarked) [Compound 3] | 1910 mL/min/kg | 65% | 5 µg/mL (≈ 16.1 µM) | 6 ng·h/mL | 2733 mL/min/kg | 41 mL/min/kg | 6.3 L/kg | 9 ng/mL | 0.1 ng/mL | 15 min | 2.9 h | – | – | – | fraction unbound (in vitro): < 0.015; AUC(0-t) at 24 h ([2]; in vivo, iv, 1 mg/kg, AUC0–24): 430 ng·h/mL; AUC(0-t) at 24 h ([2]; in vivo, po, 10 mg/kg, AUC0–24): 10 ng·h/mL |
| c1ccc(-c2nnc(CN3Cc4ccccc4C3)o2)cc1 [Compound 39] | – | 98% | 20 µg/mL (≈ 72.1 µM) | – | – | – | – | – | – | – | – | > 100 µM | > 20 µM | 7.5 ± 3.5 µM (≈ 2.08 µg/mL) | – |
| c1ccc(C2CCCN2Cc2nnc(-c3cccs3)o2)cc1 (centres unmarked) [Compound 40] | – | 100% | 50 µg/mL (≈ 161 µM) | – | – | – | – | – | – | – | – | 50 µM | > 20 µM | 9.9 ± 2.1 µM (≈ 3.08 µg/mL) | – |
| c1ccc(-c2nnc(CN3CCCC3c3ccccc3)o2)cc1 (centres unmarked) [Compound 41] | – | 99% | 34 µg/mL (≈ 111 µM) | – | – | – | – | – | – | – | – | > 100 µM | > 20 µM | 8.3 ± 1.4 µM (≈ 2.53 µg/mL) | – |
